Assay results from PubChem BioAssay AID624491 (Broad Institute, 2012).
Active and inactive are the calls of the source.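 How the source made its calls: active means fitted curve crossing a set activation limit at or below the highest valid dose tested; inconclusive means flat fit at 30 to 70% activation, or poor fit; inactive means the rest, including signal decreases.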

Each compound was assayed on D54 ERlucT glycosylation luciferase reporter, luminescence, 24 h (assay: N-linked glycosylation inhibitors, luciferase reporter, dose response, D54 ERlucT cells, luminescence, cherry-picks (AID 624491);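 further: signal gain reflects blocked N-linked glycosylation of a luciferase reporter; actives raise luciferase signal so AC26 marks activators of the reporter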).

SMILES | AC26
COc1ccc(CC(=O)NCc2ccc(-n3cccc3)cc2)cc1OC | 825 nM
Cc1ccc(S(=O)(=O)N2CCN(C(=O)COC(=O)c3cc([N+](=O)[O-])ccc3NCCO)CC2)c(C)c1 | 2430 nM
O=C(/C=C/Sc1ccccc1)c1ccccc1 | 2150 nM
CCOC(=O)c1ccc(N=c2sc(C(=O)OC)cc(=O)n2Cc2ccco2)cc1 | 3830 nM
CC(C)Sc1ccccc1C(=O)Nc1ccc2c(c1)n(C)c(=O)n2C | 4830 nM
Cc1ccc(C)c(OCC(O)CN2CCN(CCN3C(=O)c4cccc5cccc(c45)C3=O)CC2)c1 (configuration not stated) | 755 nM
CN(C)S(=O)(=O)c1ccc(N2CCCC2)c(C(=O)Nc2nccs2)c1 | 549 nM
O=C(CCl)Nc1ccc(Sc2ccc(NC(=O)CCl)cc2)cc1 | 667 nM
O=C(C=Cc1ccccn1)c1ccccc1O | 1250 nM
COc1cc(C(=O)Nc2cc(C(F)(F)F)ccc2N2CCOCC2)ccc1OCC(=O)N1CCOCC1 | 1820 nM
O=C1NC(=O)N(Cc2ccccc2)C(=O)/C1=C/C=C/c1ccco1 | 1080 nM
O=C(NO)c1ccc(OC(F)F)cc1 | 3430 nM
COc1ccc(-c2ccc(C(c3c(C)[nH][nH]c3=O)c3c(C)[nH][nH]c3=O)o2)c([N+](=O)[O-])c1 | 224 nM
COc1cc(C(=O)Nc2ccc3c(c2)CCN3C(C)=O)cc(OC)c1OC | 1240 nM
COc1ccc2c(c1)c(C(=O)N/N=C/c1ccc(Br)cc1)c(C)n2C | 17100 nM
COC(=O)Nc1nc(C)c(C(=O)c2ccccc2)s1 | 7950 nM
O=C(N/N=C/c1cccc(Br)c1)c1ccc(N2CCCC2=O)cc1 | 6630 nM
NC(=O)c1cccc(-c2coc3c(C(=O)NCc4ccccc4)cccc23)c1 | 4070 nM
COc1ccc(C(=O)NC(=C(Cl)Cl)S(=O)(=O)c2ccc(C)cc2)cc1 | 10200 nM
COc1cc2cnc(-c3ccccc3)cc2cc1OC | 2360 nM
Cc1cccc(CCNC(=O)CCCOc2cc(=O)n(C)c3ccccc23)c1 | 4450 nM
COc1ccc(/C=C/C(=O)c2ccc3c(c2)OCCO3)cc1[N+](=O)[O-] | 5050 nM

SMILES | AC26
CCc1cccc(NC(=O)c2cc(S(=O)(=O)N(C)C)ccc2N2CCCC2)c1 | 646 nM
COc1ccc(CC(=O)N(Cc2ccccc2)c2ccc(C)cc2)cc1OC | 716 nM
CCn1c2ccccc2c2cc(NC(=O)COC(=O)c3ccc(O)cc3)ccc21 | 5820 nM
NC1(C(=O)O)CSSC1 | 221 nM
Cn1c(=O)[nH]c(=O)c2c1nc(N1CCN(Cc3ccccc3)CC1)n2CCCc1ccccc1 | 436 nM
COc1cc(NC(=O)c2noc(C)c2[N+](=O)[O-])c(OC)cc1Cl | 632 nM
c1ccc2c(c1)nc(N1CCOCC1)c1c3ccccc3[nH]c21 | 7170 nM
CCN(CC)CCNc1ccc(CO)c2oc3ccccc3c(=O)c12 | 1280 nM
Cc1cc(=O)[nH]c2c(C)cc(S(=O)(=O)N3CCCCC3)cc12 | 4410 nM
NC(=O)c1cccc(Nc2nc(C(N)CCc3ccccc3)cs2)n1 (configuration not stated) | 8640 nM
CC(=O)O[C@H]1C(=O)[C@@]2(C)C([C@H](OC(=O)c3ccccc3)[C@]3(O)C[C@H](O)C(C)=C1C3(C)C)[C@]1(OC(C)=O)CO[C@@H]1C[C@H]2O (some centres not stated) | 6460 nM
CCOC(=O)c1c(C)[nH]c(C(=O)N/N=C/c2ccc(OC)c(OC)c2)c1C | 2070 nM
O=C(N/N=C/c1c(-c2ccccc2)[nH]c2ccccc12)c1cccnc1 | 117 nM
COc1ccc2nc3n(c(=O)c2c1)-c1cc2ccccc2cc1C(=O)NC3Cc1ccccc1 (configuration not stated) | > 19500 nM (inactive)
Cn1c(=O)[nH]c(=O)c2c1nc(SCC(N)=O)n2Cc1cccc(Br)c1 | 660 nM
Oc1cc(NCc2ccc(Cl)cc2)cc2cccnc12 | 6410 nM
O=C(N/N=C/C(Br)=C/c1ccccc1)c1cc(-c2ccco2)[nH]n1 | 5350 nM
OCCCN=c1cc(-c2ccccc2)oc2ccc(Cl)cc12 | 978 nM
CCOC(=O)c1[nH]c2c(c1-c1ccccc1)C(=O)CC(c1ccccc1)C2 (configuration not stated) | 1480 nM
Cc1cc(C)nc(SC2=CS(=O)(=O)c3ccccc32)n1 | 4210 nM
O=c1cc(N/N=C/c2ccccc2)[nH]c(=O)[nH]1 | 14400 nM
N#Cc1ccc(-c2cccs2)nc1SCc1cccnc1 | 242 nM

SMILES | AC26
Cc1ccc(S(=O)(=O)N(C)C[C@@H]2Oc3ccc(NC(=O)CCC(F)(F)F)cc3CC(=O)N([C@@H](C)CO)C[C@@H]2C)cc1 | 1470 nM
CCc1ccc2[nH]c3nc(SCC(=O)NNC(=O)c4ccc(C(C)(C)C)cc4)nnc3c2c1 | 4110 nM
Cc1nc(N=C(N)N)nc2c(C)cccc12 | 2200 nM
Cc1cc2c(cc(C(=O)OCC(=O)NCc3cccs3)n2C(C)C)o1 | 1740 nM
O=C(CC1Sc2ccccc2NC1=O)NNc1ccc(Cl)c(Cl)c1 (configuration not stated) | 2840 nM
CCOc1ccc2[nH]c(C(=O)N/N=C/c3cc(OC)c(OC)c(OC)c3)cc2c1 | 1320 nM
NS(=O)(=O)c1ccc(NC(=O)c2cccc3cc4ccccc4nc23)cc1 | 1320 nM
COc1ccc(CCn2c(=N)c(C(=O)NCc3ccco3)cc3c(=O)n4ccccc4nc32)cc1 | 2810 nM
COc1cc(Nc2c3c(nc4ccccc24)CCC3)cc(OC)c1OC | 71.5 nM
CCOc1ccc2cc(/C=C/C(=O)c3ccco3)c(Cl)nc2c1 | 3060 nM
COc1ccccc1-c1csc(C(NC(C)=O)c2ccccc2)n1 (configuration not stated) | < 1.2 nM
CC(=O)Nc1ccc(CC(=O)NCCC(c2ccccc2)c2ccccc2)cc1 | 11300 nM
CCOC(=O)COc1cccc2c(=O)n(CC(=O)NCc3ccccc3)ccc12 | 2540 nM
Cc1cc(NCCN2CCOCC2)c2ccc3ccccc3c2n1 | 3590 nM
COc1ccc(/C=N/NC(=O)c2ccccc2OCc2ccccc2)c(OC)c1 | 1400 nM
CCOc1ncccc1C(=O)Nc1cc2c(cc1Br)OCCO2 | 7780 nM
Cc1ccc(C(=O)N/C(=C\c2cccs2)C(=O)NCCc2c[nH]c3ccccc23)cc1 | 378 nM
Cc1ccc(-n2c(SCC(=O)NCCC3=CCCCC3)nc3n[nH]c(C)c3c2=N)cc1Cl | 6130 nM
Cc1cc(C)c(S(=O)(=O)N(C)CC(=O)N2CCCC2)c(C)c1 | 2910 nM
COc1ccccc1/C=N/NC(=O)CSc1cc(C)nc2ccccc12 | 2940 nM
Cc1ccc(CSc2ccc3nnc(-c4cccnc4)n3n2)cc1 | 1170 nM
COc1ccccc1N1CCN(c2ccc3c(c2)S(=O)(=O)c2cccc(C(=O)NCC4CC4)c2C3=O)CC1 | 4550 nM

SMILES | AC26
COc1cc2c(cc1OC)C(=O)N1[C@H]3c4ccccc4OC[C@@H]3[C@H](c3ccccc3)[C@]1(C)C(=O)N2 | 42.6 nM
CCOC(=O)c1cnc2c(ccc3ccccc32)c1NCCCN(C)C | 2050 nM
CCOC(=O)c1[nH]c(C)c(C(=O)Nc2ccc(C)c(F)c2)c1C | 5420 nM
COc1ccc(Nc2nc(N)c(C(=O)c3ccc(OC)cc3)s2)cc1 | 483 nM
COc1cccc(-c2cnc3c(NC=O)cc(-c4cc(C)c(O)c(C)c4)cn23)c1 | 2140 nM
CNc1ccc(/C=C/C(=O)c2cccc3ccccc23)cc1[N+](=O)[O-] | 2810 nM
COc1ccccc1-c1csc(C(NC(C)=O)c2ccc(F)c(F)c2)n1 (configuration not stated) | 341 nM
COc1cc(-c2noc(C)c2/C=C/c2ccc(OC(C)=O)cc2)cc(OC)c1OC | 494 nM
Cc1cc(C)nc(/N=C(\N)Nc2ccc(OCc3ccccc3)cc2)n1 | 8.88 nM
CC#CCN1c2ccccc2[C@]23C[C@@H](C(=O)OC)N(C(=O)c4cc(C)oc4C)C2=NC(C(=O)OC)=C(C(=O)OC)[C@H]13 | 1790 nM
c1ccc(CN2CCC(Nc3nc(-c4cccnc4)nc4ccccc34)CC2)cc1 | 6130 nM
CCOc1ccc2[nH]c3c(N4CCc5ccccc5C4)ncnc3c2c1 | 3460 nM
C[C@@H](NC(=O)c1nc[nH]c1C(=O)N1CCN(c2ccccc2)CC1)c1ccccc1 | 2110 nM
Cn1nc(-c2ccc(Cl)cc2)c2cc(C(=O)NCCCN3CCOCC3)sc21 | 4330 nM
CCN(CC)CCCNc1nc2ccccc2c2nc(-c3ccncc3)nn12 | 2320 nM
COc1cc(-c2cnc3c(NC(C)=O)cc(-c4ccccc4CN(C)C)cn23)cc(OC)c1OC | 2650 nM
CN1C(=O)c2cccc3c(S(=O)(=O)Nc4ccccn4)ccc1c23 | 5030 nM
O=C(CCl)Nc1cc(S(=O)(=O)N2CCCCCC2)ccc1Cl | 441 nM
c1ccc(N=Nc2ccc3cccccc2-3)cc1 | 2060 nM
C=CCN=C(SCC(=O)c1ccc(Cl)cc1)c1c(O)n(C)c(=O)n(C)c1=O | 2340 nM
CCn1c2ccccc2c2cc(NC(=O)COC(=O)c3ccccc3F)ccc21 | 4200 nM
C=CCNc1nc2cc(-c3ccccc3C)sc2c(=O)n1C | 2810 nM

SMILES | AC26
Cc1noc(C)c1COc1ccc(C(=O)NNC(=O)c2ccccc2F)cc1 | 33.4 nM
CC(=O)Nc1sc(C)c(C)c1C(=O)OCC(=O)N(CC(C)C)c1c(N)n(Cc2ccccc2)c(=O)[nH]c1=O | 4710 nM
COc1ccc(NC(=O)CSc2c3c(nc4ccccc24)CCCC3)c(OC)c1 | 9240 nM
CN(C)CCNC(=O)c1cccc2nc3c(ccc4ccccc43)nc12 | 719 nM
CSc1ccc(/C=N/NC(=O)c2ccccc2Cl)cc1 | 3680 nM
CCN(CC)c1ccc(NC(=O)c2cc(OC)cc(OC)c2)c(C)c1 | 932 nM
Cc1ccc2cc(CN(CCCN(C)C)C(=O)NCc3ccccc3)c(=O)[nH]c2c1C | 69.1 nM
COc1cc(/C=C2\SC(=S)N(CCC(=O)N3CCCCC3)C2=O)cc(OC)c1OC | 6840 nM
C[C@@]12C(=O)Nc3cc(F)c(F)cc3C(=O)N1[C@H]1c3ccccc3OC[C@@H]1[C@@H]2c1ccccc1 | 784 nM
CN1CCN(CC(=O)Nc2cc(N(C)C)nc3ccccc23)CC1 | 6650 nM
COc1ccc2c(c1)[C@H]1[C@H](CO2)[C@H](c2ccccc2)[C@]2(C)C(=O)Nc3cc(OC)c(OC)cc3C(=O)N12 | 13.1 nM
CN(/N=C/c1ccc(N(C)C)cc1)C1=NS(=O)(=O)c2ccccc21 | 1610 nM
O=C(N/N=C\c1cn(-c2ccccc2)nc1-c1ccccc1)c1ccc(Br)o1 | 9570 nM
Cc1ccc(-c2nc(C(=O)NCCCN(C)C)cc3c2[nH]c2ccccc23)cc1 | 4300 nM
CC[C@H](C)[C@@H](NC(=O)O[C@@H]1C(=O)c2cc(OC)ccc2O[C@H]1c1ccc(OC)c(Br)c1)C(=O)OC | 335 nM
Cc1cc(NC(=O)CSc2nc3c(C)cccc3cc2C#N)no1 | 3320 nM
NS(=O)(=O)c1cc(C(=O)NCCOc2ccccc2)c(Cl)cc1Cl | 5620 nM
COc1ccc2c(c1)C(=O)N1[C@H]3c4cc(OC)ccc4OC[C@@H]3[C@H](c3ccccc3)[C@]1(C)C(=O)N2 | 197 nM
O=C(N=Nc1c(O)[nH]c2ccc(Br)cc12)c1cc(-c2cccs2)nc2ccccc12 | 4850 nM
